Results on 19 compounds are retold here after patent EP2719696A1, “NOVEL KINASE INHIBITORS” (Asinex Limited, priority 2011, dated 2012).

One experiment concerns the target PDGFR-α (Homo sapiens, UniProt P16234). Briefly: Kinase inhibition assay (ELISA). Type of experiment: biochemical. Particulars: 1 µM ATP. The protocol: (§1) To determine the interaction of our compounds with tyrosine kinases: PDGFR-α, cKIT, PDGFR-β, VEGFR-2 we used enzyme-linked immunosorbent assay (ELISA).
(§2) Determination plates preparation: The plates are processed by neutravidine for 2 h at 30°C. After washing thrice with TBS/0.1% Tween-20 and blocking with 1% BSA/TBS for 1 h at room temperature (RT) 96-well microtiter plates were washed thrice with TBS/0.1% Tween-20 again.
(§3) Reaction: After addition test compounds (in DMSO, DMSO final concentration - 5%) to reaction buffer (20 mM HEPES, pH 7.5, 15 mM MgCl2, 3 mM MnCl2, 2 mM DTT, 0.2 mM Na3VO4, 0.005% Triton X-100; PDGFR-α,: 0.05 µg/ml, 0.5 µg/ml Poly(G,T)-biotin; PDGFR-β: 0.05 µg/ml, 1 µg/ml Poly(G,T)-biotin; c-KIT: 0.03 µg/ml, 0.15 µg/ml Poly(G,T)-biotin; VEGFR-2: 0.07 µg/ml, 0.05 µg/ml Poly(G,T)-biotin) and preincubation of reaction for 10 min at RT and intensive agitation, ATP solution (PDGFR-α, - 1 µM, PDGFR-β - 0.5 µM, c-KIT - 60 µM, VEGFR-2: - 1.5 µM ATP in reaction buffer per well) was added to initiate reaction. Following incubation of mixture for 1 h at 30°C and intensive agitation the reaction was stopped by stop solution (20 mM HEPES, pH 7.5, 50 mM EDTA).
(§4) Kinase activity determination: The reaction mixture was transferred to determination plate. After mix incubation for 1 h at RT and intensive agitation the plates were washed thrice with TBS/0.1% Tween-20. Following mouse monoclonal 0.05 µg/ml Anti-p-Tyr (PY20) HRP antibodies (Santa Cruz Biotechnology) in PBS/BSA were added for 1 h at RT and intensive agitation. After washing, antibody binding was detected by tetramethylbenzidine (TMB) color development (Sigma). Measurement of A450 nm was carried out after addition of H2SO4
On the technique in general: An ELISA detects its analyte on a solid surface through an enzyme-linked reagent.

The target in another experiment is VEGFR-2 (Homo sapiens, UniProt P35968). The experiment is described as follows: Kinase inhibition assay (ELISA). In kind it is biochemical. Particulars: 1.5 µM ATP. The procedure: as §1, §2, §3, §4
VEGFR-2, sequence (P35968 20-1356, species assumed): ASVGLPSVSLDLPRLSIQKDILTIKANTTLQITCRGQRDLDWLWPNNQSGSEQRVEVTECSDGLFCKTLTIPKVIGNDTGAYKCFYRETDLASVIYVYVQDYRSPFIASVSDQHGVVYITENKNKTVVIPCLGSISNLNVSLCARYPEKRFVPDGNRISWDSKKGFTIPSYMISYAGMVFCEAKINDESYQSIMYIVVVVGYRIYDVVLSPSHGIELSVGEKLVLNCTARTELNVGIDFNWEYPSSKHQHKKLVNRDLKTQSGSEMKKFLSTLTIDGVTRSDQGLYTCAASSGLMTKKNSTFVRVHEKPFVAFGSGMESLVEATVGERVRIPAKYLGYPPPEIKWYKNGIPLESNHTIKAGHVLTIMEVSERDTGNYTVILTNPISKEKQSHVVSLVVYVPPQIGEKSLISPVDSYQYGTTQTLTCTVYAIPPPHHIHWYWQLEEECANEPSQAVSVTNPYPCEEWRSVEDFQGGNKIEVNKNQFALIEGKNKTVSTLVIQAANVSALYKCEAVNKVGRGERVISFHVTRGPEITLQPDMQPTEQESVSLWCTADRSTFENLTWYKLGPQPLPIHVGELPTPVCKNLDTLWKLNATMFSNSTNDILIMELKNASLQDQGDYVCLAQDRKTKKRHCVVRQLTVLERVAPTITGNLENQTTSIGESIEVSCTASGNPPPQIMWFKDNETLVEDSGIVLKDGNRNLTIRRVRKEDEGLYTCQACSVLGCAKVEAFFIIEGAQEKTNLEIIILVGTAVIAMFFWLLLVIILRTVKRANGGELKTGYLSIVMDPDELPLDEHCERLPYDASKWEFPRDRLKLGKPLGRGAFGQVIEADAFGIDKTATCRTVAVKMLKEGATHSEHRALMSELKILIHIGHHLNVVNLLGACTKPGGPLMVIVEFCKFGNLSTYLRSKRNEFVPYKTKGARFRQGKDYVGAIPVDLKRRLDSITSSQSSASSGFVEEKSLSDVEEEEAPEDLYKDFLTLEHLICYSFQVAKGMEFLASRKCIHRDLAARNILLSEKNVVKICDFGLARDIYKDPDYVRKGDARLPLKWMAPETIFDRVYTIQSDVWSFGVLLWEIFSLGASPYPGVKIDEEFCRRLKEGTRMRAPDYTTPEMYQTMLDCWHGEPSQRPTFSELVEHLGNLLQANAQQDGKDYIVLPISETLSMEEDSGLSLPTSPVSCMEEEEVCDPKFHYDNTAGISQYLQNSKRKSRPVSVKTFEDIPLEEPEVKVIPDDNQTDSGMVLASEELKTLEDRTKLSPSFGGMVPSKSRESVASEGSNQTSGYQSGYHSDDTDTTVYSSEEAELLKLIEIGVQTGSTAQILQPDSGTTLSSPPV
Another experiment concerns the target cKIT (Homo sapiens, UniProt P10721). The experiment is described as follows: Kinase inhibition assay (ELISA). Type of experiment: biochemical. The settings on record: 60 µM ATP. The protocol: as §1, §2, §3, §4
In another experiment the test system is A2780. Briefly: MTT proliferation / cytotoxicity assay. Type of experiment: cell-based, human. Particulars: Homo sapiens, A2780, 72 h. The protocol: (§5) Cell culture. The human cancer cell lines A172, A375, A2780 and U251 were purchased from the American Type Culture Collection. All cells were routinely maintained in DMEM containing 10% fetal bovine serum (Omega Scientific), at 37°C in 5% C02.
(§6) Proliferation assay Inhibition of cell A172, A375, A2780 and U251 cell proliferation was assessed by a MTT assay (MTT = Thiazolyl Blue Tetrazolium Bromide) . Cells were inoculated into 96-well microtiter plates containing 0.5% fetal calf serum and incubated at 37°C, 5% CO2, 95% air, and 100% relative humidity for 24 h prior to addition of testing compounds. Following compounds addition, the plates were incubated for an additional 72 h before processing to measure the cell population. Each compound was tested at eight different concentrations in triplicate, as was a control sample. Growth inhibition of 50% (IC50) is calculated by analysis of the data in Prizm3.4 software.
(§7) Table 8 lists IC50 values for inhibition of growth of several cancer cell lines, including the glioblastoma cell lines A172 and U251, measured in a MTT cytotoxicity assay. Table 8. Data of cytotoxicity assay (MTT) for several cancer cell lines, IC50 [µM]

Another experiment relates to A375. Briefly: MTT proliferation / cytotoxicity assay. In kind it is cell-based, human. Particulars: Homo sapiens, A-375, 72 h. The protocol:
as §5, §6, §7

In a further experiment the test system is A172. Briefly: MTT proliferation / cytotoxicity assay. In kind it is cell-based, human. Particulars: Homo sapiens, A 172, 72 h, glioblastoma cell line. The procedure: as §5, §6, §7
Another experiment deals with U251. The experiment is described as follows: MTT proliferation / cytotoxicity assay. In kind it is cell-based, human. The settings on record: Homo sapiens, U-251, 72 h, glioblastoma cell line. The procedure:
as §5, §6, §7

Structures are written as SMILES.

PDGFR-α, sequence (P16234 24-1089, species assumed): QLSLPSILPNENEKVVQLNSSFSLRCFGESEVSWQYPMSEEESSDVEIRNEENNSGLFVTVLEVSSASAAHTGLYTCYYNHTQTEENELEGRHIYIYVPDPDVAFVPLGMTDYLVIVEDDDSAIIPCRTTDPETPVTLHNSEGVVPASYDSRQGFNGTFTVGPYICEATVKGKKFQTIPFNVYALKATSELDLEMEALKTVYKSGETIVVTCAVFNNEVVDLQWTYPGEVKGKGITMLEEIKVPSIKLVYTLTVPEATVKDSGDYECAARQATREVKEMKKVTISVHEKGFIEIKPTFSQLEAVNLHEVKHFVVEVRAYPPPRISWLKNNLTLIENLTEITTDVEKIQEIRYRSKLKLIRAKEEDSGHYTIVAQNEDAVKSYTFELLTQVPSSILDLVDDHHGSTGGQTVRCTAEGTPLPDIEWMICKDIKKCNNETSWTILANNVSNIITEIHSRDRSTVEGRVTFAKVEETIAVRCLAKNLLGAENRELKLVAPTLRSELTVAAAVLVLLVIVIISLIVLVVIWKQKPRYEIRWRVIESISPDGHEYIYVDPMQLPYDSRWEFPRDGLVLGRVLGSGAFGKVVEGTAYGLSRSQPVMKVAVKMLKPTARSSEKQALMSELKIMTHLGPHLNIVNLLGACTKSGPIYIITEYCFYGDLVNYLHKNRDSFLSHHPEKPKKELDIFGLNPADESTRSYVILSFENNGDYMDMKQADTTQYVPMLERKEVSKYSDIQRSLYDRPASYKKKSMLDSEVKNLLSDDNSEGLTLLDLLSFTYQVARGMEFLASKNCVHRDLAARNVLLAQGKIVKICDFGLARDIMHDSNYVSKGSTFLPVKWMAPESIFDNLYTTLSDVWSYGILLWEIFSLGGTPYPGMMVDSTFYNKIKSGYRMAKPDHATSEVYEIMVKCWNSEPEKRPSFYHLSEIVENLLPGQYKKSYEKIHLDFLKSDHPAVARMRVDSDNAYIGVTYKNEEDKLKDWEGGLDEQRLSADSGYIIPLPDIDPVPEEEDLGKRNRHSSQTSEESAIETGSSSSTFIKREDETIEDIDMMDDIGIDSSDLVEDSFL
cKIT, sequence (P10721 26-976): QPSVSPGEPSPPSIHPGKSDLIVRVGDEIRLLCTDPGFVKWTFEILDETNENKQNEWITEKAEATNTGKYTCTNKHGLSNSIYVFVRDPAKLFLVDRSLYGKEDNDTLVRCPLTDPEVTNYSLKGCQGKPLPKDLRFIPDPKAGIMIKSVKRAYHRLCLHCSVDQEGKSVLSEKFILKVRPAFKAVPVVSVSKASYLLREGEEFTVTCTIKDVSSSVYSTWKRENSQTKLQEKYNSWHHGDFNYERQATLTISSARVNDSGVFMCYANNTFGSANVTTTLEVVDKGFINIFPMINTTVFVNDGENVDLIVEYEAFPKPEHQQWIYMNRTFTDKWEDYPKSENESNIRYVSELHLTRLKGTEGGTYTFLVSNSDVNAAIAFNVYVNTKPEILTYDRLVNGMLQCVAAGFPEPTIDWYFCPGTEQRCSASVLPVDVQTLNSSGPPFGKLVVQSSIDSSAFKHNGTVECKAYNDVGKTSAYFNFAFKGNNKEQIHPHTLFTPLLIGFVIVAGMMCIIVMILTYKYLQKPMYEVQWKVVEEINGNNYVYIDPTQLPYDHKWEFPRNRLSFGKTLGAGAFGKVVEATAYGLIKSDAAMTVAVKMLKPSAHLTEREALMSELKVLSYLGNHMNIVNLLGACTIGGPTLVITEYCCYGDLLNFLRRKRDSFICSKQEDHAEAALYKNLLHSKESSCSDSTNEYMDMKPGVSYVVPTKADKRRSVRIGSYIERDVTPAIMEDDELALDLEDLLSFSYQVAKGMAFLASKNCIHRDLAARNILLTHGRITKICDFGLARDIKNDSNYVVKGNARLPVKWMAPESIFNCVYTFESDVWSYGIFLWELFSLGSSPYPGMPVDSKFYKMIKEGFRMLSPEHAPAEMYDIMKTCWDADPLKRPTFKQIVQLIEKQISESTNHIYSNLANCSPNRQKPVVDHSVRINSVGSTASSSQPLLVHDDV

As a reminder, the IC50 is the concentration needed to halve the response being measured. High values mean lower potency, low ones higher potency. Take `CC(C)(C)Cc1cnc(Nc2cccc(C3CCN(C(=O)C(C)(C)N)CC3)n2)s1` [Example 047, 2-Amino-1-{6-[5-(2,2-dimethylpropyl)-thiazol-2-ylamino]-3',4',5',6'-tetrahydro-2'H-[2,4']bipyridinyl-1'-yl}-2-methyl-propan-1-one]: the half-maximal inhibitory concentration (IC50) is greater than 100 nM on PDGFR-α; greater than 100 nM against VEGFR-2; greater than 1000 nM on cKIT; no more than 1 µM in the experiment on A2780; greater than 1 µM with A375.
In the case of `CN1CCC(Cc2ccnc(Nc3ncc(-c4ccc(F)cc4)s3)c2)CC1` [Example 004, [5-(4-Fluoro-phenyl)-thiazol-2-yl]-[4-(1-methyl-piperidin-4-ylmethyl)-pyridin-2-yl]-amine], the half-inhibitory concentration (IC50) was greater than 1 µM with A172, greater than 1 µM in the experiment on A2780, greater than 1 µM with A375 and greater than 10 µM with U251.
Turning to `CCCc1cnc(Nc2cccc(C3CCN(C(=O)C(C)(C)N)CC3)n2)s1` [Example 041, 2-Amino-2-methyl-1-[6-(5-propyl-thiazol-2-ylamino)-3',4',5',6'-tetrahydro-2'H-[2,4']bipyridinyl-1'-yl]-propan-1-one], the IC50 was greater than 100 nM at cKIT, no more than 1 µM with A2780 and greater than 1 µM in the experiment on A375.
Consider `OCCN1CCC(CO)(c2cccc(Nc3ncc(-c4ccccc4)s3)n2)CC1` [Example 042, 2-[4'-Hydroxymethyl-6-(5-phenyl-thiazol-2-ylamino)-3',4',5',6'-tetrahydro-2'H-[2,4']bipyridinyl-1'-yl]-ethanol], for which the concentration for half-maximal inhibition (IC50) was greater than 100 nM against PDGFR-α, greater than 10000 nM against VEGFR-2 and greater than 100 nM on cKIT.
Regarding `Fc1ccc(-c2cnc(Nc3cccc(CC4CCC5CNCC54)n3)s2)cc1` (stereo not shown) [Example 020, [5-(4-Fluoro-phenyl)-thiazol-2-yl]-[6-(octahydro-cyclopenta[c]pyrrol-4-ylmethyl)-pyridin-2-yl]-amine], the 50% inhibitory concentration (IC50) on PDGFR-α is less than 10 nM; at VEGFR-2, greater than 100 nM; on cKIT it was less than 10 nM; in the experiment on A172, no more than 1 µM; with A2780 it was less than 1 µM.
On to `OCCN1CCC(c2cccc(Nc3ncc(-c4ccnc(Cl)c4)s3)n2)CC1` [Example 046, 2-{6-[5-(2-Chloro-pyridin-4-yl)-thiazol-2-ylamino]-3',4',5',6'-tetrahydro-2'H-[2,4']bipyridinyl-1'-yl}-ethanol], for which the concentration for half-maximal inhibition (IC50) was less than 10 nM on PDGFR-α, greater than 100 nM against VEGFR-2 and greater than 10 nM at cKIT.
As for `Cc1nc(Nc2ncc(-c3ccccc3)s2)cc(C2CCN(C(=O)C(C)(C)N)CC2)n1` [Example 031, 2-Amino-2-methyl-1-{4-[2-methyl-6-(5-phenyl-thiazol-2-ylamino)-pyrimidin-4-yl]-piperidin-1-yl}-propan-1-one], the IC50 is less than 10 nM against PDGFR-α; greater than 10 nM against VEGFR-2; greater than 10 nM against cKIT; greater than 1 µM with A172; greater than 1 µM with A2780; greater than 10 µM in the experiment with U251.
Consider `c1ccc(-c2cnc(Nc3cc(CC4CCNC4)ccn3)s2)cc1` (stereo not shown) [Example 014, (5-Phenyl-thiazol-2-yl)-(4-pyrrolidin-3-ylmethyl-pyridin-2-yl)-amine], for which the half-inhibitory concentration (IC50) at PDGFR-α is less than 10 nM; at VEGFR-2, greater than 10 nM; against cKIT, greater than 10 nM.
`c1ccc(-c2cnc(Nc3cc(C4CCCN4)ccn3)s2)cc1` (stereo not shown) [Example 027, (5-Phenyl-thiazol-2-yl)-(4-pyrrolidin-2-yl-pyridin-2-yl)-amine]: the values for the half-inhibitory concentration (IC50) against PDGFR-α, against VEGFR-2 and on cKIT were less than 10 nM, greater than 10 nM and greater than 10 nM, respectively.
For `c1ccc(-c2cnc(Nc3cc(CC4CCCNCC4)ccn3)s2)cc1` (stereo not shown) [Example 026, (4-Azepan-4-ylmethyl-pyridin-2-yl)-(5-phenyl-thiazol-2-yl)-amine], the IC50 in the experiment on A172 was greater than 1 µM; in the experiment on A2780 it was no more than 1 µM; with A375, greater than 1 µM; in the experiment on U251, greater than 10 µM.
In the case of `CN(C)CC1(c2cccc(Nc3ncc(-c4ccccc4)s3)n2)CCN(CCO)CC1` [Example 043, 2-[4'-Dimethylaminomethyl-6-(5-phenyl-thiazol-2-ylamino)-3',4',5',6'-tetrahydro-2'H-[2,4']bipyridinyl-1'-yl]-ethanol], the IC50 against PDGFR-α was greater than 1000 nM; against VEGFR-2 it was greater than 10000 nM; at cKIT, greater than 10000 nM.
For `OCCN1CCC(c2cncc(Nc3ncc(-c4ccccc4)s3)n2)CC1` [Example 030, 2-{4-[6-(5-Phenyl-thiazol-2-ylamino)-pyrazin-2-yl]-piperidin-1-yl}-ethanol], the values for the IC50 against PDGFR-α, at VEGFR-2 and on cKIT were greater than 10 nM, greater than 100 nM and greater than 100 nM, respectively.
As for `Cc1cc(Nc2ncc(-c3ccccc3)s2)nc(C2CCN(CCO)CC2)n1` [Example 029, 2-{4-[4-Methyl-6-(5-phenyl-thiazol-2-ylamino)-pyrimidin-2-yl]-piperidin-1-yl}-ethanol], the IC50 against PDGFR-α was greater than 10 nM; against VEGFR-2, greater than 100 nM; on cKIT, less than 10 nM; with A172, no more than 1 µM; in the experiment on A2780, no more than 1 µM; in the experiment with U251, greater than 1 µM.
Consider `Fc1ccc(-c2cnc(Nc3cc(CC4CCC5CNCC54)ccn3)s2)cc1` (stereo not shown) [Example 018, [5-(4-Fluoro-phenyl)-thiazol-2-yl]-[4-(octahydro-cyclopenta[c]pyrrol-4-ylmethyl)-pyridin-2-yl]-amine], for which the IC50 is less than 10 nM against PDGFR-α; greater than 10 nM at VEGFR-2; less than 10 nM on cKIT; greater than 1 µM with A172; greater than 1 µM with A2780.
As to `Fc1ccc(-c2cnc(Nc3cccc(CC4COC5(CCNCC5)C4)n3)s2)cc1` (stereo not shown) [Example 024, [5-(4-Fluoro-phenyl)-thiazol-2-yl]-[6-(1-oxa-8-aza-spiro[4.5]dec-3-ylmethyl)-pyridin-2-yl]-amine], the IC50 was less than 10 nM at PDGFR-α; greater than 10 nM against VEGFR-2; greater than 10 nM against cKIT; no more than 1 µM in the experiment with A172; no more than 1 µM in the experiment with A2780.
Consider `CNC1CCC(Cc2ccnc(Nc3ncc(-c4ccc(F)cc4)s3)c2)CC1` (stereo not shown) [Example 016, [5-(4-Fluoro-phenyl)-thiazol-2-yl]-[4-(4-methylamino-cyclohexylmethyl)-pyridin-2-yl]-amine], for which the IC50 is less than 10 nM on PDGFR-α; greater than 10 nM against VEGFR-2; less than 10 nM on cKIT; greater than 1 µM in the experiment with A172; greater than 1 µM with A2780.
On to `CC(C)(C)OC(=O)N1CCC(c2cccc(Nc3ncc(C#CC4CC4)s3)n2)CC1` [Example 045, 6-(5-Cyclopro-pylethynyl-thiazol-2-ylamino)-3',4',5',6'-tetrahydro-2'H-[2,4']bipyridinyl-1'-carboxylic acid tert-butyl ester], for which the IC50 against PDGFR-α is greater than 10000 nM; at VEGFR-2 it was greater than 10 nM; against cKIT, greater than 10000 nM.
In the case of `OCCN1CCC(c2ccnc(Nc3ncc(/C=C/c4ccccc4)s3)c2)CC1` [Example 048, 2-{2'-[5-((E)-Styryl)-thiazol-2-ylamino]-3,4,5,6-tetrahydro-2H-[4,4']bipyridinyl-1-yl}-ethanol], the IC50 against PDGFR-α was greater than 10 nM; on VEGFR-2 it was greater than 100 nM; at cKIT, greater than 1000 nM.
With `CN1CCOCC(Cc2ccnc(Nc3ncc(-c4ccc(F)cc4)s3)c2)C1` (stereo not shown) [Example 010, [5-(4-Fluoro-phenyl)-thiazol-2-yl]-[4-(4-methyl-[1,4]oxazepan-6-ylmethyl)-pyridin-2-yl]-amine], the IC50 was greater than 1 µM in the experiment with A172, greater than 1 µM with A2780, greater than 1 µM in the experiment on A375 and greater than 10 µM in the experiment on U251.
